The values that follow are results of earlier work, collected in article PMC5381245 (Theranostics, 2017).

For this series, the system named is tumor. As to conditions: 2 h p.i.

“NOTA-GlyGly-Nle-CycMSHhex (sidechain bridge or staple) [^64Cu-labeled NOTA-GlyGly-Nle-CycMSHhex]”: the tumor uptake is 13.4 ± 1.6 %ID/g.

With “^111In-DOTA-GlyGly-Nle-CycMSHhex (sidechain bridge or staple)”, the tumor-to-kidney uptake ratio is 2.8.

Turning to “^111In-DOTA-Nle-CycMSHhex (sidechain bridge or staple)”, the tumor uptake is on record as 19.4 ± 1.7 %ID/g and the tumor-to-kidneys uptake ratio is listed as 2.0.
